From patent US20230174938A1, “METHODS AND COMPOSITIONS FOR GENERATING HUMAN ERYTHROID PROGENITOR CELLS” (Trailhead Biosystems Inc., priority 2021, published 2023) come the findings set out here.

In experiment [1] the test system is HBA expression. The experiment in a line: Refinement of stage 2 recipe: HBA expression modelling and cell number. The format is cell-based, human. Conditions: higher concentration: holo-transferrin 600 ug/mL, EPO 4 U/mL; or supplement added. The procedure: In order to refine the stage 2 recipe, more modelling experiments were conducted using the same factors as the stage 2 recipe but testing different concentrations of critical factors such as EPO and holo-transferrin. Additionally, because lipid inputs are critical for RBC differentiation, a commercial cholesterol supplement (Sigma) was tested.

Experiment [2] has as its system erythroid progenitors from GATA1+ MEP cells. The experiment in a line: Factor criticality analysis (dynamic profile), stage 2 recipe. The class given is cell-based, human. Also on record: unit not given here. The procedure: (§1) To assess the impact of the elimination of each validated factor identified for the stage 1 and 2 recipes as described in Example 1, dynamic profile analysis was used and compared the expression level of genes of interest in absence of each finalized factor while others are present.
In the stage 2 recipe, each of the five finalized factors was removed while the other four factors remained present and the expression levels of GATA1, HBA1, GYPA (CD235) and TFRC were assessed compared to the presence of all five factors. When EPO was removed, the values of GATA1 decreased from 1386 to 736, the values of HBA1 changed from 700 to 285, the values of GYPA decreased from 345 to 61 and the values of TFRC dropped from 2943 to 898. All changes represent a significant loss of expression of a desired gene.

Experiment [3] relates to GATA1 bipotential progenitor (MEP progenitor) from human cord blood CD34+ cells. Kind of experiment: HD-DoE 12-factor experiment optimized for maximum expression of HBA1 (stage 2). The format is cell-based. Conditions: 12-factor model optimized for maximum HBA1 expression; 3 days after stage 1. The procedure: To engineer the stage 2 media, first CD34+ cells from human cord blood cells were cultured for 5 days in stage 1 media (Table 1), which converts hematopoietic stem cells to a GATA1 bipotential progenitor (MEP progenitor). This progenitor has the potential to differentiate to erythroid and megakaryocyte lineages. To further guide the differentiation of GATA1 bipotential progenitor, an additional HD-DoE experiment was performed. […] The basis of this was a 12-factor HD-DoE experiment with focus on differentiation of cells toward the erythroid lineage for an additional 3 days after termination of stage 1 treatment.
To test the effectors, 96 different combinations of effectors generated using Design-of-Experiments compression through D-optimality were robotically prepared. The effector combinations were prepared in a basal media and were subsequently added to the cells, which were then allowed to differentiate. Three days later RNA extraction was performed, and gene expression was obtained using quantitative PCR analysis. The data were normalized and modeled using partial least squares regression analysis to the effector design, resulting in the generation of gene-specific models, which after model tuning for maximal Q2 predictive power, provided explanation of the effectors ability to control the expression of individual genes, combinatorically, and individually. Solutions within the tested space could then be explored to address desirability.
This model was derived from initial testing of twelve factors including: HB-EGF, Optiferrin, SR1, knockout serum, ibuprofen, GM-CSF, holo-transferrin, EPO, eltrombopag, Neuregulin 1, THI0019 and AICAR.

In experiment [4] the test system is CD34 cells. Kind of experiment: HD-DoE 6-factor experiment optimized for maximum expression of GATA1. The class given is cell-based, human. The procedure: To test whether EPO or other commonly used cytokines are required for GATA1 induction, we conducted experiments with 6 factors in a range of concentrations. On this experiment CD34 cells were thawed and kept overnight in media containing SCF 10 ng/mL. On the next day, 48 different combinations of effectors were added to the cells, and SCF 5 ng/mL was kept in all the wells.

For experiment [5], the system named is MEP progenitor from CD34+ HSCs. The experiment in a line: Factor criticality analysis (dynamic profile), stage 1 recipe. The class given is cell-based, human. Set-up: unit not given here. The procedure:
as §1
In the stage 1 recipe, each of the five finalized factors was removed while the other four factors remained present and the expression levels of GATA2, GATA1, CD36 and TFRC were assessed compared to the presence of all five factors.

The subject of experiment [6] is CD34+ population of cells isolated from cord blood. Kind of experiment: HD-DoE 8-factor experiment optimized for maximum expression of GATA1 (stage 1). The class given is cell-based, human. Conditions: for factor contribution: 8-factor model optimized for maximum GATA1 expression, 3-day treatment. The procedure: The effector combinations were prepared in a basal media and were subsequently added to the cells, which were then allowed to differentiate. […] Solutions within the tested space could then be explored to address desirability.

Where [7] appears, read: named factor removed, other four present.

On to holotransferrin: Iron source, for which the HBA expression result in experiment [1] is recorded as “higher HBA expression”. In addition, in experiment [2] (all five factors present), the GATA1 expression is 1370, the GYPA expression is 330, the HBA1 expression amounted to 688 and the TFRC expression came out at 2883. In experiment [2] (setting [7]), this molecule came in with a GATA1 expression of 967, a GYPA expression of 170, an HBA1 expression of 500 and a TFRC expression of 1703.

With EPO: EPOR agonist, erythropoietin, the HBA expression entry in experiment [1] is “higher HBA expression”. The factor contribution in experiment [3] is reported as 31. Also, in experiment [4] (6-factor model), the “requirement for GATA1 induction” value is “not required for GATA1 induction”. Also, in experiment [2] (all five factors present), the GATA1 expression is on record as 1386, the GYPA expression is recorded as 345, the HBA1 expression is listed as 700 and the TFRC expression was found to be 2943. In experiment [2] (setting [7]), this molecule returned a GATA1 expression of 736, a GYPA expression of 61, an HBA1 expression of 285 and a TFRC expression of 898.

For the molecule `CC(C)n1cnc2c(NCCc3ccc(O)cc3)nc(-c3csc4ccccc34)nc21` [SR1], the values for the factor contribution in experiment [3] and in experiment [6] were 7 and 6, respectively. The figures for the GATA1 expression in experiment [5] (all five factors present) and in experiment [5] (setting [7]) were 510 and 410, respectively. Also, the TFRC expression is 970 in experiment [5] (all five factors present) and 570 in experiment [5] (setting [7]). Besides, the HBA1 expression in experiment [2] (all five factors present) stood at 700; in experiment [2] (setting [7]) it was 597.

On to `NC1(c2ccc(-c3nc4ccn5c(=O)[nH]nc5c4cc3-c3ccccc3)cc2)CCC1` [MK2206], for which the GATA1 expression was 510 in experiment [5] (all five factors present) and 400 in experiment [5] (setting [7]). Moreover, the factor contribution in experiment [6] worked out at 17.

`NC(=O)c1ncn([C@@H]2O[C@H](CO)[C@@H](O)[C@H]2O)c1N` [AICAR, reference compound]: the factor contribution in experiment [3] is listed as 9. In addition, the values for the GYPA expression in experiment [2] (all five factors present) and in experiment [2] (setting [7]) were 337 and 256, respectively. Also, the HBA1 expression turned out to be 689 in experiment [2] (all five factors present) and 569 in experiment [2] (setting [7]).

As to `C=C1C(=O)O[C@@H]2C[C@@]3(C)CCC[C@H](C)C3=C[C@H]12` [Alantolactone], the GATA1 expression in experiment [5] (all five factors present) is on record as 510; in experiment [5] (setting [7]), 460. In addition, the factor contribution in experiment [6] is 8. The “impact on GATA1 expression” value in experiment [6] (8-factor model, GATA1) is “supportive of GATA1 induction”.

B1: Activin A: a member of the TGFβ family (protein, UniProt P08476 311-426, looked up)
Inhibin beta A chain: GLECDGKVNICCKKQFFVSFKDIGWNDWIIAPSGYHANYCEGECPSHIAGTSGSSLSFHSTVINHYRMRGHSPFANLKSCCVPTKLRPMSMLYYDDGQNIIKKDIQNMIVEECGCS
For the molecule B1, the factor contribution in experiment [4] (6-factor model optimized for maximum GATA1 expression, SCF 5 ng/mL in all wells) stood at 33.
